Structures are written as SMILES. Converted amounts (≈) assume the structure as drawn. Bridge positions count the residues as written; N and C are the ends. Square brackets hold non-standard residues; d marks the D form. Peptide text beside a SMILES is read from it. * marks the point of attachment. Ileψ(thiazoline)Cys = CC[C@H](C)[C@H](N)C1=N[C@H](C(=O)*)CS1; dOrn = NCCC[C@@H](N)C(=O)O

Common to all, as to type: functional
The test system of assay [1] is Listeria monocytogenes. Put plainly: Antimicrobial activity against anrB-deficient Listeria monocytogenes EGD-e at 10 ug after 16 hrs by disk diffusion assay. The note with it: read-out: IZ. In general terms: Agar diffusion results depend on both activity and mobility in agar.
Assay [2] concerns Listeria monocytogenes. Put plainly: Antimicrobial activity against anrB-deficient Listeria monocytogenes EGD-e assessed as growth inhibition after 16 hrs by broth dilution method relative to wild type.
In assay [3] the test system is Listeria monocytogenes. Put plainly: Antimicrobial activity against Listeria monocytogenes EGD-e assessed as growth inhibition after 16 hrs by broth dilution method. On the technique in general: Dilution methods test growth across graded concentrations, often in twofold steps.
The subject of assay [4] is Listeria monocytogenes. The assay is described as follows: Antimicrobial activity against anrB-deficient Listeria monocytogenes EGD-e assessed as growth inhibition after 16 hrs by broth dilution method.
Assay [5] concerns Listeria monocytogenes. Put plainly: Antimicrobial activity against Listeria monocytogenes EGD-e at 10 ug after 16 hrs by disk diffusion assay. The conditions noted are these: read-out: IZ.
The test system of assay [6] is Listeria monocytogenes. The assay is described as follows: Antimicrobial activity against mprF-deficient Listeria monocytogenes EGD-e assessed as growth inhibition after 16 hrs by broth dilution method.
The subject of assay [7] is Listeria monocytogenes. Put plainly: Antimicrobial activity against virR-deficient Listeria monocytogenes EGD-e assessed as growth inhibition after 16 hrs by broth dilution method relative to wild type.
Assay [8] deals with Listeria monocytogenes. Put plainly: Antimicrobial activity against mprF-deficient Listeria monocytogenes EGD-e assessed as growth inhibition after 16 hrs by broth dilution method relative to wild type.
The subject of assay [9] is Listeria monocytogenes. The assay is described as follows: Antimicrobial activity against telA-deficient Listeria monocytogenes EGD-e assessed as growth inhibition after 16 hrs by broth dilution method relative to wild type.
Assay [10] has as its system Listeria monocytogenes. The assay is described as follows: Antimicrobial activity against lisK-deficient Listeria monocytogenes EGD-e assessed as growth inhibition after 16 hrs by broth dilution method relative to wild type.
Assay [11] concerns Listeria monocytogenes. Put plainly: Antimicrobial activity against lisK-deficient Listeria monocytogenes EGD-e assessed as growth inhibition after 16 hrs by broth dilution method.
The test system of assay [12] is Listeria monocytogenes. The assay is described as follows: Antimicrobial activity against telA-deficient Listeria monocytogenes EGD-e assessed as growth inhibition after 16 hrs by broth dilution method.
The subject of assay [13] is Listeria monocytogenes. Put plainly: Antimicrobial activity against virR-deficient Listeria monocytogenes EGD-e assessed as growth inhibition after 16 hrs by broth dilution method.
The subject of assay [14] is Listeria monocytogenes. Put plainly: Antimicrobial activity against anrB-deficient Listeria monocytogenes EGD-e at 100 ug after 16 hrs by disk diffusion assay. The note with it: read-out: IZ.
Assay [15] deals with Listeria monocytogenes. Put plainly: Antimicrobial activity against Listeria monocytogenes EGD-e at 100 ug after 16 hrs by disk diffusion assay. The conditions noted are these: read-out: IZ.
Assay [16] concerns Listeria monocytogenes. Put plainly: Antimicrobial activity against anrB-deficient Listeria monocytogenes EGD-e at 30 ug after 16 hrs by disk diffusion assay. The note with it: read-out: IZ.
The subject of assay [17] is Listeria monocytogenes. Put plainly: Antimicrobial activity against Listeria monocytogenes EGD-e at 30 ug after 16 hrs by disk diffusion assay. The conditions noted are these: read-out: IZ.
Assay [18] relates to Listeria monocytogenes. The assay is described as follows: Antimicrobial activity against anrB-deficient Listeria monocytogenes EGD-e at 1 ug after 16 hrs by disk diffusion assay. The note with it: read-out: IZ.
Assay [19] concerns Listeria monocytogenes. The assay is described as follows: Antimicrobial activity against Listeria monocytogenes EGD-e at 1 ug after 16 hrs by disk diffusion assay. The note with it: read-out: IZ.
The test system of assay [20] is Listeria monocytogenes. The assay is described as follows: Antimicrobial activity against anrB-deficient Listeria monocytogenes EGD-e at 5 ug after 16 hrs by disk diffusion assay. The note with it: read-out: IZ.
Assay [21] has as its system Listeria monocytogenes. The assay is described as follows: Antimicrobial activity against Listeria monocytogenes EGD-e at 5 ug after 16 hrs by disk diffusion assay. The conditions noted are these: read-out: IZ.

What is called MIC is the lowest concentration that inhibits growth of the organism. As to `CC1(C)S[C@@H]2[C@H](NC(=O)[C@H](N)c3ccccc3)C(=O)N2[C@H]1C(=O)O` [AMPICILLIN], the zone of inhibition at 10 µg/disc stood at 36.6 mm with Listeria monocytogenes [1] and 32.8 mm in the assay with Listeria monocytogenes [5]. Also, the “fold change (FC)” value with Listeria monocytogenes [2] amounted to 2. In addition, the MIC in the assay with Listeria monocytogenes [3] is 1 µg/mL (≈ 2.86 µM); in the assay on Listeria monocytogenes [4], 0.5 µg/mL (≈ 1.43 µM).

As for `CC[C@H](C)[C@H](N)C1=N[C@H](C(=O)N[C@@H](CC(C)C)C(=O)N[C@H](CCC(=O)O)C(=O)N[C@H](C(=O)N[C@H]2CCCCNC(=O)[C@H](CC(N)=O)NC(=O)[C@@H](CC(=O)O)NC(=O)[C@H](Cc3cnc[nH]3)NC(=O)[C@@H](Cc3ccccc3)NC(=O)[C@H]([C@@H](C)CC)NC(=O)[C@@H](CCCN)NC2=O)[C@@H](C)CC)CS1` [BACITRACIN] ({Ileψ(thiazoline)Cys}-L[dE]IK[dOrn]I[dF]H[dD]N; lactam 4-C), the results for the zone of inhibition at 10 µg/disc with Listeria monocytogenes [1] and with Listeria monocytogenes [5] were 20 mm and 10.5 mm, respectively. The “fold change (FC)” value with Listeria monocytogenes [2] turned out to be 8. Also, the MIC in the assay on Listeria monocytogenes [3] is 256 µg/mL (≈ 180 µM); in the assay with Listeria monocytogenes [4], 32 µg/mL (≈ 22.5 µM); in the assay with Listeria monocytogenes [6], 64 µg/mL (≈ 45 µM); with Listeria monocytogenes [11] it was 128 µg/mL (≈ 90 µM); with Listeria monocytogenes [12] it was 128 µg/mL (≈ 90 µM); in the assay on Listeria monocytogenes [13], 2 µg/mL (≈ 1.41 µM). Further, the Ratio in the assay with Listeria monocytogenes [7] is recorded as -128; in the assay with Listeria monocytogenes [8], -4; with Listeria monocytogenes [9], -2; with Listeria monocytogenes [10], -2.

Consider `CC1(C)S[C@@H]2[C@H](NC(=O)C(C(=O)O)c3ccccc3)C(=O)N2[C@H]1C(=O)O` (stereo partly drawn) [CARBENICILLIN], for which the results for the zone of inhibition at 100 µg/disc in the assay on Listeria monocytogenes [14] and in the assay with Listeria monocytogenes [15] were 43 mm and 36.7 mm, respectively.

Turning to `N[C@@H](C(=O)N[C@@H]1C(=O)N2C(C(=O)O)=C(Cl)CS[C@H]12)c1ccccc1` [CEFACLOR ANHYDROUS], the zone of inhibition at 30 µg/disc in the assay on Listeria monocytogenes [16] was 24.8 mm; in the assay on Listeria monocytogenes [17] it was 22.2 mm.

Turning to `CO[C@@]1(NC(=O)CSCC#N)C(=O)N2C(C(=O)O)=C(CSc3nnnn3C)CS[C@@H]21` [CEFMETAZOLE], the zone of inhibition at 30 µg/disc is 34.2 mm in the assay with Listeria monocytogenes [16] and 31.4 mm in the assay on Listeria monocytogenes [17].

`CCN1CCN(C(=O)N[C@@H](C(=O)N[C@@H]2C(=O)N3C(C(=O)O)=C(CSc4nnnn4C)CS[C@H]23)c2ccc(O)cc2)C(=O)C1=O` [CEFOPERAZONE]: the zone of inhibition at 30 µg/disc in the assay on Listeria monocytogenes [16] was found to be 24 mm; in the assay with Listeria monocytogenes [17] it was 20.6 mm.

Turning to `CO/N=C(\C(=O)N[C@@H]1C(=O)N2C(C(=O)O)=C(COC(C)=O)CS[C@H]12)c1csc(N)n1` [CEFOTAXIME], the zone of inhibition at 30 µg/disc is 22.5 mm with Listeria monocytogenes [16] and 19.6 mm in the assay on Listeria monocytogenes [17]. In the assay with Listeria monocytogenes [2], the “fold change (FC)” value is listed as 2. The MIC in the assay with Listeria monocytogenes [3] stood at 2 µg/mL (≈ 4.39 µM); in the assay with Listeria monocytogenes [4], 1 µg/mL (≈ 2.2 µM).

Take `CC(C)(O/N=C(\C(=O)N[C@@H]1C(=O)N2C(C(=O)[O-])=C(C[n+]3ccccc3)CS[C@H]12)c1csc(N)n1)C(=O)O` [CEFTAZIDIME]: the results for the zone of inhibition at 30 µg/disc in the assay with Listeria monocytogenes [16] and with Listeria monocytogenes [17] were 7.8 mm and 6.1 mm, respectively.

For `CO/N=C(\C(=O)N[C@@H]1C(=O)N2C(C(=O)O)=C(COC(N)=O)CS[C@H]12)c1ccco1` [CEFUROXIME], the zone of inhibition at 30 µg/disc in the assay with Listeria monocytogenes [16] is 24.8 mm; with Listeria monocytogenes [17], 21.3 mm. In addition, in the assay on Listeria monocytogenes [2], the “fold change (FC)” value is reported as 2. Besides, the results for the MIC with Listeria monocytogenes [3] and with Listeria monocytogenes [4] were 2.87 µg/mL (≈ 6.76 µM) and 1.44 µg/mL (≈ 3.39 µM), respectively.

Regarding `CC1=C(C(=O)O)N2C(=O)[C@@H](NC(=O)[C@H](N)c3ccccc3)[C@H]2SC1` [CEPHALEXIN ANHYDROUS], the results for the zone of inhibition at 30 µg/disc in the assay with Listeria monocytogenes [16] and in the assay with Listeria monocytogenes [17] were 14.8 mm and 12.2 mm, respectively.

In the case of `CC(=O)OCC1=C(C(=O)O)N2C(=O)[C@@H](NC(=O)Cc3cccs3)[C@H]2SC1` [CEPHALOTHIN], the zone of inhibition at 30 µg/disc in the assay with Listeria monocytogenes [16] was 33.6 mm; with Listeria monocytogenes [17], 30.3 mm.

Consider `CC1=C(C(=O)O)N2C(=O)[C@@H](NC(=O)[C@H](N)C3=CCC=CC3)[C@H]2SC1` [CEPHRADINE], for which the zone of inhibition at 30 µg/disc with Listeria monocytogenes [16] was found to be 16.9 mm; with Listeria monocytogenes [17] it was 13.6 mm.

As to `C/C=C(/NC(=O)[C@H](CCCCN)NC(=O)[C@H](C)NC(=O)[C@H]1CS[C@@H](C)[C@@H](NC(=O)[C@H]2CSC[C@@H](NC(=O)[C@H](C)NC(=O)[C@@H](N)[C@@H](C)CC)C(=O)N[C@@H](CCCCN)C(=O)N[C@@H](Cc3ccccc3)C(=O)N[C@@H](CC(C)C)C(=O)N2)C(=O)N2CCC[C@H]2C(=O)NCC(=O)N1)C(=O)NCC(=O)N[C@@H]1CSC[C@H]2NC(=O)[C@H](Cc3ccc(O)cc3)NC(=O)[C@@H](CS/C=C/NC2=O)NC(=O)[C@H](CC(N)=O)NC(=O)[C@H](Cc2ccccc2)NC1=O` [GALLIDERMIN], the “fold change (FC)” value in the assay with Listeria monocytogenes [2] is given as 4. The MIC with Listeria monocytogenes [3] is 2 µg/mL (≈ 0.924 µM); in the assay with Listeria monocytogenes [4], 0.5 µg/mL (≈ 0.231 µM).

Consider `C[C@@H](O)[C@H]1C(=O)N2C(C(=O)O)=C(SCCNC=N)C[C@H]12` [IMIPENEM ANHYDROUS], for which the zone of inhibition at 30 µg/disc with Listeria monocytogenes [16] worked out at 42.3 mm; in the assay with Listeria monocytogenes [17], 39.7 mm.

Consider `C=C(NC(=O)[C@@H](NC(=O)[C@H](Cc1cnc[nH]1)NC(=O)[C@@H](NC(=O)[C@H](CO)NC(=O)[C@@H]1CS[C@@H](C)[C@H]2NC(=O)C(=C)NC(=O)[C@H](NC(=O)[C@H](CCCCN)NC(=O)[C@H](CCSC)NC(=O)[C@H](CC(N)=O)NC(=O)[C@@H]3CS[C@@H](C)[C@@H](NC(=O)[C@H](CCCNN)NC(=O)[C@@H]4CS[C@@H](C)[C@@H](NC(=O)[C@@H]5CSC[C@@H](NC(=O)/C(=C\C)NC(=O)[C@@H](N)[C@@H](C)CC)C(=O)N[C@@H]([C@@H](C)CC)C(=O)NC(=C)C(=O)N[C@@H]([C@@H](C)CC)C(=O)N5)C(=O)N5CCC[C@H]5C(=O)NCC(=O)N4)C(=O)NCC(=O)N[C@@H](C)C(=O)N[C@@H]([C@@H](C)CC)C(=O)N[C@@H](CCSC)C(=O)NCC(=O)N3)[C@H](C)SC[C@H](NC2=O)C(=O)N[C@H](Cc2cnc[nH]2)C(=O)N1)[C@@H](C)CC)C(C)C)C(=O)N[C@@H](CCCCN)C(=O)O` [NISIN], for which the “fold change (FC)” value with Listeria monocytogenes [2] came to 2. Further, the Ratio with Listeria monocytogenes [7] is on record as -32; in the assay with Listeria monocytogenes [8], -16; in the assay on Listeria monocytogenes [9] it was -2; with Listeria monocytogenes [10] it was 2.

As for `Cc1onc(-c2ccccc2)c1C(=O)N[C@@H]1C(=O)N2[C@@H]1SC(C)(C)[C@@H]2C(=O)O` [OXACILLIN], the zone of inhibition at 1 µg/disc with Listeria monocytogenes [18] is 11.9 mm; with Listeria monocytogenes [19], 9.6 mm.

Take `CC1(C)S[C@@H]2[C@H](NC(=O)Cc3ccccc3)C(=O)N2[C@H]1C(=O)O` [PENICILLIN G]: the zone of inhibition at 5 µg/disc in the assay with Listeria monocytogenes [20] amounted to 34.7 mm; with Listeria monocytogenes [21], 30.5 mm. In the assay with Listeria monocytogenes [2], the “fold change (FC)” value was determined as 2. In addition, the MIC in the assay on Listeria monocytogenes [3] stood at 0.72 µg/mL (≈ 2.15 µM); in the assay with Listeria monocytogenes [4], 0.36 µg/mL (≈ 1.08 µM).

For `CCN1CCN(C(=O)N[C@@H](C(=O)N[C@@H]2C(=O)N3[C@@H]2SC(C)(C)[C@@H]3C(=O)O)c2ccccc2)C(=O)C1=O` [PIPERACILLIN], the zone of inhibition at 30 µg/disc was 35.3 mm in the assay on Listeria monocytogenes [16] and 30.7 mm in the assay on Listeria monocytogenes [17].

(Values after ChEMBL document CHEMBL1671725, “The ABC transporter AnrAB contributes to the innate resistance of Listeria monocytogenes to nisin, bacitracin, and various beta-lactam antibiotics” (2010).)
